Source: patent US8278452B2, “Heterocyclic compounds and compositions as c-kit and PDGFR kinase inhibitors” (IRM LLC, priority 2008, dated 2012)

Tests used:
[1] = system: Mo7e cells which endogenously express c-kit; test: Mo7e assay: inhibition of SCF dependent proliferation (MTT); type: cell-based
Procedure, shortened: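 Mo7e cells stimulated with human recombinant SCF and exposed to two-fold serial compound dilutions from a top concentration of 10 μM. After 48 h at 37 °C, viability measured by MTT colorimetric assay; IC50 derived.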

Human TG/HA-VSMC cells = test: Human TG/HA-VSMC proliferation assay (PDGF-BB, CellTiter-Glo); type: cell-based; conditions: Biological data table, PDGF-BB stimulated
Method: Human TG/HA-VSMC Proliferation Assay
Human TG/HA-VSMC cells (ATCC) were resuspended in DMEM supplemented with 1% FBS and 30 ng/mL recombinant human PDGF-BB at 60,000 cells/mL. The cells were aliquoted into 384 well plates at 50 μL/well and incubated for 4 hours at 37° C. in a humidified incubator in the presence of 5% carbon dioxide. 0.5 μL of test compound diluted in DMSO was added to each well. The plates were returned to the incubator for a further 68 hours. 25 μL of CellTiter-Glo (Promega) was added to each well and the plates were incubated on the bench for 15 minutes. Luminescence was then read using a CLIPR CCD camera (Molecular Devices).

[2] = Mo7e, Biological data table (selectivity c-kit over PDGFR)
[3] = Table 1, SCF stimulated Mo7e cells, 48 hours, MTT

Cc1cc2c(cn1)cc(-c1cc(Nc3cc(-c4nccs4)no3)ccc1C)c(=O)n2C [Compound F1, 1,7-dimethyl-3-(2-methyl-5-(3-(thiazol-2-yl)isoxazol-5-ylamino)phenyl)-1,6-naphthyridin-2(1H)-one] showed an IC50 [1, 2] of 111 nM, an IC50 [1, 3] of 111 nM and an IC50 (Human TG/HA-VSMC cells) of 2140 nM.
Molecule Cc1cc2c(cn1)cc(-c1cc(Nc3noc(C4CC4)n3)ccc1C)c(=O)n2C [Compound A3, 3-(5-(5-cyclopropyl-1,2,4-oxadiazol-3-ylamino)-2-methylphenyl)-1,7-dimethyl-1,6-naphthyridin-2(1H)-one] has an IC50 [1, 2] of 16 nM, an IC50 [1, 3] of 16 nM and an IC50 (Human TG/HA-VSMC cells) of 506 nM.
Work on Cc1ccc(-c2nnc(Nc3ccc(C)c(-c4cc5cnc(C)cc5n(C)c4=O)c3)o2)cc1 [Compound B1, 1,7-dimethyl-3-(2-methyl-5-{[5-(4-methylphenyl)-1,3,4-oxadiazol-2-yl]amino}phenyl)-1,2-dihydro-1,6-naphthyridin-2-one] yielded an IC50 [1, 2] of 76 nM, an IC50 [1, 3] of 76 nM and an IC50 (Human TG/HA-VSMC cells) of 2260 nM.
Cc1cc2c(cn1)cc(-c1cc(Nc3cc(-c4nccs4)on3)ccc1C)c(=O)n2C [Compound D9, 1,7-dimethyl-3-(2-methyl-5-(5-(thiazol-2-yl)isoxazol-3-ylamino)phenyl)-1,6-naphthyridin-2(1H)-one] gave an IC50 [1, 2] of 141 nM, an IC50 [1, 3] of 141 nM and an IC50 (Human TG/HA-VSMC cells) of 1070 nM.
COc1ccc(-c2nc(Nc3ccc(C)c(-c4cc5cnc(C)cc5n(C)c4=O)c3)no2)cc1 [Compound A14, 3-(5-{[5-(4-methoxyphenyl)-1,2,4-oxadiazol-3-yl]amino}-2-methylphenyl)-1,7-dimethyl-1,2-dihydro-1,6-naphthyridin-2-one] was tested, and the IC50 [1, 2] was 14 nM, the IC50 [1, 3] was 14 nM and the IC50 (Human TG/HA-VSMC cells) was 1820 nM.
In the case of Cc1cc2c(cn1)cc(-c1cc(Nc3nnc(-c4ccccc4)[nH]3)ccc1C)c(=O)n2C [Compound C6, 1,7-dimethyl-3-(2-methyl-5-(5-phenyl-4H-1,2,4-triazol-3-ylamino)phenyl)-1,6-naphthyridin-2(1H)-one], the IC50 [1, 2] is reported as 335 nM, the IC50 [1, 3] is reported as 335 nM and the IC50 (Human TG/HA-VSMC cells) is reported as 3390 nM.
In the case of Cc1cc2c(cn1)cc(-c1cc(Nc3nc(-c4ccccn4)no3)ccc1C)c(=O)n2C [Compound E2, 1,7-dimethyl-3-(2-methyl-5-(3-(pyridin-2-yl)-1,2,4-oxadiazol-5-ylamino)phenyl)-1,6-naphthyridin-2(1H)-one], the IC50 [1, 2] is reported as 256 nM, the IC50 [1, 3] is reported as 256 nM and the IC50 (Human TG/HA-VSMC cells) is reported as 2360 nM.
In the case of Cc1cc2c(cn1)cc(-c1cc(Nc3noc(C4(CO)CC4)n3)ccc1C)c(=O)n2C [Compound A69, 3-(5-(5-(1-(hydroxymethyl)cyclopropyl)-1,2,4-oxadiazol-3-ylamino)-2-methylphenyl)-1,7-dimethyl-1,6-naphthyridin-2(1H)-one], the IC50 [1, 3] is reported as 148 nM.
In the case of Cc1cc2c(cn1)cc(-c1cc(Nc3cc(C4CCCO4)on3)ccc1C)c(=O)n2C (stereo not drawn) [Compound D5], the IC50 [1, 3] is reported as 197 nM.
Cc1cc2c(cn1)cc(-c1cc(Nc3noc(-c4cc5cc(Cl)ccc5[nH]4)n3)ccc1C)c(=O)n2C [Compound A46, 3-(5-{[5-(5-chloro-1H-indol-2-yl)-1,2,4-oxadiazol-3-yl]amino}-2-methylphenyl)-1,7-dimethyl-1,2-dihydro-1,6-naphthyridin-2-one] showed an IC50 [1, 3] of 338 nM.
Cc1cc2c(cn1)cc(-c1cc(Nc3noc(C4(C)COC4)n3)ccc1C)c(=O)n2C [Compound A65, 1,7-dimethyl-3-(2-methyl-5-{[5-(3-methyloxetan-3-yl)-1,2,4-oxadiazol-3-yl]amino}phenyl)-1,2-dihydro-1,6-naphthyridin-2-one] gave an IC50 [1, 3] of 413 nM.
Cc1cc2c(cn1)cc(-c1cc(Nc3nnc(C4CCC4)[nH]3)ccc1C)c(=O)n2C [Compound C8, 3-{5-[(5-cyclobutyl-4H-1,2,4-triazol-3-yl)amino]-2-methylphenyl}-1,7-dimethyl-1,2-dihydro-1,6-naphthyridin-2-one] was tested, and the IC50 [1, 3] was 435 nM.
Cc1cc2c(cn1)cc(-c1cc(Nc3noc(CC(C)(C)O)n3)ccc1C)c(=O)n2C [Compound A56, 3-(5-(5-(2-hydroxy-2-methylpropyl)-1,2,4-oxadiazol-3-ylamino)-2-methylphenyl)-1,7-dimethyl-1,6-naphthyridin-2(1H)-one] showed an IC50 [1, 3] of 230 nM.
Cc1cc2c(cn1)cc(-c1cc(Nc3nnc(-c4ccccc4)o3)ccc1C)c(=O)n2C [Compound B4, 1,7-dimethyl-3-(2-methyl-5-(5-phenyl-1,3,4-oxadiazol-2-ylamino)phenyl)-1,6-naphthyridin-2(1H)-one] was tested, and the IC50 [1, 3] was 105 nM.
Cc1cc2c(cn1)cc(-c1cc(Nc3nnc(C(C)C)o3)ccc1C)c(=O)n2C [Compound B7, 1,7-dimethyl-3-(2-methyl-5-{[5-(propan-2-yl)-1,3,4-oxadiazol-2-yl]amino}phenyl)-1,2-dihydro-1,6-naphthyridin-2-one] gave an IC50 [1, 3] of 162 nM.
Cc1cc2c(cn1)cc(-c1cc(Nc3noc(C4(O)CC4)n3)ccc1C)c(=O)n2C [Compound A57, 3-(5-(5-(1-hydroxycyclopropyl)-1,2,4-oxadiazol-3-ylamino)-2-methylphenyl)-1,7-dimethyl-1,6-naphthyridin-2(1H)-one] showed an IC50 [1, 3] of 185 nM.
Molecule Cc1cc2c(cn1)cc(-c1cc(Nc3noc(C(C)CO)n3)ccc1C)c(=O)n2C (stereo not drawn) [Compound A67, 3-(5-(5-(1-hydroxypropan-2-yl)-1,2,4-oxadiazol-3-ylamino)-2-methylphenyl)-1,7-dimethyl-1,6-naphthyridin-2(1H)-one] has an IC50 [1, 3] of 299 nM.
Molecule Cc1cc2c(cn1)cc(-c1cc(Nc3noc(-c4ccc(C(F)(F)F)nc4)n3)ccc1C)c(=O)n2C [Compound A4, 1,7-dimethyl-3-[2-methyl-5-({5-[6-(trifluoromethyl)pyridin-3-yl]-1,2,4-oxadiazol-3-yl}amino)phenyl]-1,2-dihydro-1,6-naphthyridin-2-one] has an IC50 [1, 3] of 472 nM.
Cc1cc2c(cn1)cc(-c1cc(Nc3nnc(C(C)(C)C)o3)ccc1C)c(=O)n2C [Compound B8, 3-{5-[(5-tert-butyl-1,3,4-oxadiazol-2-yl)amino]-2-methylphenyl}-1,7-dimethyl-1,2-dihydro-1,6-naphthyridin-2-one] showed an IC50 [1, 3] of 211 nM.
